According to US10729130B2, “Nematicidal compositions and methods of using them” (Eden Research plc, priority 2004, dated 2020):

Tests used:
Format in all cases: physicochemical
[1] = Maximal citral and L-carvone loading in Baker's yeast particles (free terpene score); set-up: key to Free Terpene: +: “free terpene” refers to the visible presence of terpene in the centrifuged reaction mixture; −: The absence of free terpene indicates complete absorption of the terpene by the particles; details: for Free Terpene: 500 μl 20 mg/ml YP, overnight room temperature
Protocol: Samples were centrifuged at 14,000×g for 10 minutes and the appearance of free terpene floating on the aqueous layer was scored. The expression “free terpene” refers to the visible presence of terpene in the centrifuged reaction mixture. The absence of free terpene indicates complete absorption of the terpene by the particles. The highest volume of terpene absorbed by the particles, as evidenced by the absence of free terpene, was recorded as the maximal volume of absorbed terpene emulsion.

[2] = Kinetics of terpene loading into various particles at room temperature or 37° C.; set-up: key: +: “free terpene” refers to the visible presence of terpene in the centrifuged reaction mixture; −: The absence of free terpene indicates complete absorption of the terpene by the particles
Protocol: 1% Tween-80 solution was prepared by sonicating 1 ml 10% Tween-80 in 10 ml water. • Baker's YP was prepared by mixing 5 g of bakers YP in 20 ml 1% Tween-80. • Nutrex™ YGP suspension was prepared by mixing 2 g Nutrex™ YGP in 20 ml 1% Tween-80. • SAF Mannan™ suspension was prepared by mixing 2 g SAF Mannan™ in 20 ml 1% Tween-80.
The reactions were incubated for 1, 3, 6, 9 and 24 hours at room temperature or 37° C. After incubation samples were centrifuged at 14,000×g for 10 minutes and the appearance of free terpene floating on the aqueous layer was scored. The highest volume of terpene absorbed by the particles as evidenced by the absence of free terpene was recorded as the volume of absorbed terpene emulsion. Colour of the encapsulated pellet was scored at 24 hours.

[3] = Baker's YP loading of different terpenes and terpene mixtures; set-up: key to Free Terpene: +: “free terpene” refers to the visible presence of terpene in the centrifuged reaction mixture; −: The absence of free terpene indicates complete absorption of the terpene by the particles; details: for Free Terpene: Baker's YP 250 mg/ml 500 μl
Protocol: Increasing volumes of terpene emulsion were mixed with 250 mg/ml Baker's YP or 250 mg/ml SAF Mannan™ overnight at room temperature as shown in Tables 27 and 28. Samples were centrifuged at 14,000×g for 10 minutes and the appearance of free terpene floating on the aqueous layer was scored. The highest volume of terpene emulsion absorbed by Baker's YP or SAF Mannan™ as evidenced by the absence of free terpene was recorded as the volume of absorbed terpene emulsion. Colour of encapsulated terpenes in the pellet was recorded.
Percentage loaded represents a ratio of the amount of terpene loaded to the amount of particle present (weight for weight).

[4] = Terpene stability: yellow colored oxidation product (colour of encapsulated terpene pellet); set-up: key to Colour: W = white; Y = yellow; sl = slight; int = intermediate; key to Color: White, W; Yellow, Y; Very Yellow, VY; details: for Color: Table 26, scored at 24 hours
Protocol: Loading reactions were set up as shown in Table 25 and left to incubate overnight. Samples were centrifuged at 14,000×g for 10 minutes and the appearance of free terpene floating on the aqueous layer and the color of the encapsulated terpenes in the pellet was scored. The highest volume of terpene absorbed by particles as evidenced by the absence of free terpene was recorded as the volume of absorbed terpene emulsion. The reactions were incubated for 1, 3, 6, 9 and 24 hours at room temperature or 37° C. After incubation samples were centrifuged at 14,000×g for 10 minutes and the appearance of free terpene floating on the aqueous layer was scored. The highest volume of terpene absorbed by the particles as evidenced by the absence of free terpene was recorded as the volume of absorbed terpene emulsion. Colour of the encapsulated pellet was scored at 24 hours. Increasing volumes of terpene emulsion were mixed with 250 mg/ml Baker's YP or 250 mg/ml SAF Mannan™ overnight at room temperature as shown in Tables 27 and 28. Samples were centrifuged at 14,000×g for 10 minutes and the appearance of free terpene floating on the aqueous layer was scored. The highest volume of terpene emulsion absorbed by Baker's YP or SAF Mannan™ as evidenced by the absence of free terpene was recorded as the volume of absorbed terpene emulsion. Colour of encapsulated terpenes in the pellet was recorded.

L-carvone
terpene emulsion absorbed and encapsulated per 10 mg of YP ([1]; Baker's YP 20 mg/ml): at least 16.5 μl | Free Terpene ([1]; emulsion 0.5 μl, 10% Tween-80 500 μl): − | Free Terpene ([1]; emulsion 1.65 μl, 10% Tween-80 500 μl): − | Free Terpene ([1]; emulsion 5 μl, 10% Tween-80 495 μl): − | Free Terpene ([1]; emulsion 16.5 μl, 10% Tween-80 483.5 μl): − | Free Terpene ([1]; emulsion 50 μl, 10% Tween-80 450 μl): + | Free Terpene ([1]; emulsion 165 μl, 10% Tween-80 335 μl): + | Free Terpene ([1]; emulsion 500 μl, no Tween-80): + | Free Terpene (hr) ([2]; 37 ° C., Bakers 250 mg/ml, emulsion 788 μl L-carvone or 525 μl Citral, 1 hr): + | Free Terpene (hr) ([2]; 37 ° C., Bakers 250 mg/ml, emulsion 788 μl L-carvone or 525 μl Citral, 3 hr): − | Free Terpene (hr) ([2]; 37 ° C., Bakers 250 mg/ml, emulsion 788 μl L-carvone or 525 μl Citral, 6 hr): − | Free Terpene (hr) ([2]; 37 ° C., Bakers 250 mg/ml, emulsion 788 μl L-carvone or 525 μl Citral, 9 hr): − | Free Terpene (hr) ([2]; 37 ° C., Bakers 250 mg/ml, emulsion 788 μl L-carvone or 525 μl Citral, 24 hr): − | Free Terpene (hr) ([2]; 37 ° C., Nutrex 100 mg/ml, emulsion 1050 μl L-carvone or 788 μl Citral, 1 hr): + | Free Terpene (hr) ([2]; 37 ° C., Nutrex 100 mg/ml, emulsion 1050 μl L-carvone or 788 μl Citral, 3 hr): − | Free Terpene (hr) ([2]; 37 ° C., Nutrex 100 mg/ml, emulsion 1050 μl L-carvone or 788 μl Citral, 6 hr): − | Free Terpene (hr) ([2]; 37 ° C., Nutrex 100 mg/ml, emulsion 1050 μl L-carvone or 788 μl Citral, 9 hr): − | Free Terpene (hr) ([2]; 37 ° C., Nutrex 100 mg/ml, emulsion 1050 μl L-carvone or 788 μl Citral, 24 hr): − | Free Terpene (hr) ([2]; 37 ° C., SAF 100 mg/ml, emulsion 1050 μl L-carvone or 788 μl Citral, 1 hr): <+ | Free Terpene (hr) ([2]; 37 ° C., SAF 100 mg/ml, emulsion 1050 μl L-carvone or 788 μl Citral, 3 hr): − | Free Terpene (hr) ([2]; 37 ° C., SAF 100 mg/ml, emulsion 1050 μl L-carvone or 788 μl Citral, 6 hr): − | Free Terpene (hr) ([2]; 37 ° C., SAF 100 mg/ml, emulsion 1050 μl L-carvone or 788 μl Citral, 9 hr): − | Free Terpene (hr) ([2]; 37 ° C., SAF 100 mg/ml, emulsion 1050 μl L-carvone or 788 μl Citral, 24 hr): − | Free Terpene (hr) ([2]; Rt, Bakers 250 mg/ml, emulsion 788 μl L-carvone or 525 μl Citral, 1 hr): + | Free Terpene (hr) ([2]; Rt, Bakers 250 mg/ml, emulsion 788 μl L-carvone or 525 μl Citral, 3 hr): − | Free Terpene (hr) ([2]; Rt, Bakers 250 mg/ml, emulsion 788 μl L-carvone or 525 μl Citral, 6 hr): − | Free Terpene (hr) ([2]; Rt, Bakers 250 mg/ml, emulsion 788 μl L-carvone or 525 μl Citral, 9 hr): − | Free Terpene (hr) ([2]; Rt, Bakers 250 mg/ml, emulsion 788 μl L-carvone or 525 μl Citral, 24 hr): − | Free Terpene (hr) ([2]; Rt, Nutrex 100 mg/ml, emulsion 1050 μl L-carvone or 788 μl Citral, 1 hr): + | Free Terpene (hr) ([2]; Rt, Nutrex 100 mg/ml, emulsion 1050 μl L-carvone or 788 μl Citral, 3 hr): − | Free Terpene (hr) ([2]; Rt, Nutrex 100 mg/ml, emulsion 1050 μl L-carvone or 788 μl Citral, 6 hr): − | Free Terpene (hr) ([2]; Rt, Nutrex 100 mg/ml, emulsion 1050 μl L-carvone or 788 μl Citral, 9 hr): − | Free Terpene (hr) ([2]; Rt, Nutrex 100 mg/ml, emulsion 1050 μl L-carvone or 788 μl Citral, 24 hr): − | Free Terpene (hr) ([2]; Rt, SAF 100 mg/ml, emulsion 1050 μl L-carvone or 788 μl Citral, 1 hr): <+ | Free Terpene (hr) ([2]; Rt, SAF 100 mg/ml, emulsion 1050 μl L-carvone or 788 μl Citral, 3 hr): − | Free Terpene (hr) ([2]; Rt, SAF 100 mg/ml, emulsion 1050 μl L-carvone or 788 μl Citral, 6 hr): − | Free Terpene (hr) ([2]; Rt, SAF 100 mg/ml, emulsion 1050 μl L-carvone or 788 μl Citral, 9 hr): − | Free Terpene (hr) ([2]; Rt, SAF 100 mg/ml, emulsion 1050 μl L-carvone or 788 μl Citral, 24 hr): − | Free Terpene ([3]; emulsion 15 μl, 1% Tween-80 485 μl): − | Free Terpene ([3]; emulsion 37.5 μl, 1% Tween-80 462.5 μl): − | Free Terpene ([3]; emulsion 150 μl, 1% Tween-80 350 μl): + | Free Terpene ([3]; emulsion 225 μl, 1% Tween-80 275 μl): + | Vol. Loaded μl ([3]; approximate maximal terpene loading in Baker's YP): 37.5 µL | % Loaded w/w ([3]; maximal loading in Baker's YP, ratio of terpene loaded to particle present, weight for weight): 33.3 % w/w | Colour ([4]; Table 25, Baker's 250 mg/ml, overnight): W | Colour ([4]; Table 25, Levacan 217 mg/ml, overnight): W | Colour ([4]; Table 25, Nutrex 163 mg/ml, overnight): W | Colour ([4]; Table 25, Nutricepts 99 mg/ml, overnight): W | Colour ([4]; Table 25, SAF Mannan 234 mg/ml, overnight): W | Colour ([4]; Table 25, WGP 121 mg/ml, overnight): W | Color ([4]; 37 ° C., Bakers 250 mg/ml): W | Color ([4]; 37 ° C., Nutrex 100 mg/ml): W | Color ([4]; 37 ° C., SAF 100 mg/ml): W | Color ([4]; Rt, Bakers 250 mg/ml): W | Color ([4]; Rt, Nutrex 100 mg/ml): W | Color ([4]; Rt, SAF 100 mg/ml): W | Colour ([4]; Table 27, Baker's YP, emulsion 7 μl as printed): W | Colour ([4]; Table 27, Baker's YP, emulsion 15 μl): W | Colour ([4]; Table 27, Baker's YP, emulsion 37.5 μl): W | Colour ([4]; Table 27, Baker's YP, emulsion 112.5 μl): W | Colour ([4]; Table 27, Baker's YP, emulsion 150 μl): W | Colour ([4]; Table 27, Baker's YP, emulsion 225 μl): W | Colour ([4]; Table 27, Baker's YP, emulsion 450 μl): W | Colour ([4]; colour of encapsulated terpene in pellet, SAF Mannan 500 μl, terpene emulsion vol 15): W | Colour ([4]; colour of encapsulated terpene in pellet, SAF Mannan 500 μl, terpene emulsion vol 37.5): W | Colour ([4]; colour of encapsulated terpene in pellet, SAF Mannan 500 μl, terpene emulsion vol 75): W | Colour ([4]; colour of encapsulated terpene in pellet, SAF Mannan 500 μl, terpene emulsion vol 112.5): W | Colour ([4]; colour of encapsulated terpene in pellet, SAF Mannan 500 μl, terpene emulsion vol 150): W | Colour ([4]; colour of encapsulated terpene in pellet, SAF Mannan 500 μl, terpene emulsion vol 225): W | Colour ([4]; colour of encapsulated terpene in pellet, SAF Mannan 500 μl, terpene emulsion vol 450): W
